Reference: patent publication US20250154163A1, “Pyrimidinone-Containing 17-Beta-Hydroxysteroid Dehydrogenase Type 13 Inhibitors” (ENANTA PHARMACEUTICALS, INC., priority 2023, published 2025)

Experiments:
[1] = molecular target: T1, human HSD17β13 (stable HEK293T cell line overexpressing human HSD17β13) (Homo sapiens, UniProt Q7Z5P4); experiment: HSD17β13 inhibitor cell-based screening assay (conversion of estradiol-d2 to estrone-d2 by RF-MS); settings: conversion of estradiol-d2 to estrone-d2 after 24 hours
T1 construct: expressed in transfected cells
T1 sequence (Q7Z5P4 20-300): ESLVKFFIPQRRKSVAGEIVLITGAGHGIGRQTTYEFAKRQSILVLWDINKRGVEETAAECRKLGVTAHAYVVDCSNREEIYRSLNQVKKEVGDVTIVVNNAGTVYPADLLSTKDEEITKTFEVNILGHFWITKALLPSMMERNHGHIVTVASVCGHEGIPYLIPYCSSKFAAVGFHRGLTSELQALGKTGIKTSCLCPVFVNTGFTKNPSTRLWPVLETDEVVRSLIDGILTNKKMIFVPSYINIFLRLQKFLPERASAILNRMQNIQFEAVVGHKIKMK
Method in brief: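 Cellular IC50 is based on 24-h conversion of estradiol-d2 (5 μM final) to estrone-d2, measured by RF-MS in acetonitrile-precipitated supernatants. Assay uses human HSD17β13-overexpressing HEK293T cells (7.5E3/well, 1% charcoal/dextran FBS MEM), with compounds dosed as a 9-point 1:3 series to 10 μM final. ATPlite luminescence on overexpressing and parent lines measured viability.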

[2] = molecular target: T2, Recombinant human 17β-HSD13 (Homo sapiens, UniProt Q7Z5P4); experiment: 17β-HSD13 rapid-fire mass spectrometry assay (RF/MS assay); format: biochemical; settings: inhibition of 17β-HSD13, RF/MS assay; HSD17B13 80 nM, LTB4 10 μM, NAD+ 0.5 mM, RT 3 h
T2 construct: host or cells: Sf9 insect cells
T2 sequence (Q7Z5P4 20-300): T1 sequence (Q7Z5P4 20-300)
Method in brief: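 Purified recombinant human 17β-HSD13 (sf9-expressed, 80 nM) incubated with compound (0–100 μM), 10 μM LTB4 and 0.5 mM NAD+ in 20 mM Tris pH 7.5, 0.005% BSA, 0.01% Tween-20, 3 h at RT. 12-oxo-LTB4 formation quantified by RapidFire MS/MS; percent conversion normalized to controls, IC50 from variable-slope fit, duplicates.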

| SMILES | IC50 [1] | IC50 [2] |
| --- | --- | --- |
| COc1ccc(-c2nc3sc4c(O)c(Cl)ccc4c3c(=O)n2Cc2cn(C(F)(F)F)nn2)c(C2CC2)c1 [Example 130] | < 0.1 µM | < 0.1 µM |
| O=c1c2c(nc(-c3ccc(OC(F)(F)F)cc3C3CC3)n1Cc1cnco1)sc1c(O)c(Cl)ccc12 [Example 131] | < 0.1 µM | < 0.1 µM |
| O=c1c2c(nc(-c3ccc(F)c(F)c3C3CC3)n1Cc1cnco1)sc1c(O)c(Cl)ccc12 [Example 132] | < 0.1 µM | < 0.1 µM |
| O=c1c2c(nc(-c3cc(F)c(C(F)(F)F)cc3C3CC3)n1Cc1cnco1)sc1c(O)c(Cl)ccc12 [Example 133] | < 0.1 µM | < 0.1 µM |
| O=c1c2c(nc(-c3ccc(C(F)(F)F)cc3C3CC3)n1Cc1cnco1)sc1c(O)c(Cl)ccc12 [Example 135] | < 0.1 µM | < 0.1 µM |
| COc1cc(F)c(-c2nc3sc4c(O)c(Cl)ccc4c3c(=O)n2Cc2cnco2)c(C2CC2)c1 [Example 137] | < 0.1 µM | < 0.1 µM |
| O=c1c2c(nc(-c3cc(Cl)c(F)cc3C3CC3)n1Cc1cnco1)sc1c(O)c(Cl)ccc12 [Example 138] | < 0.1 µM | < 0.1 µM |
| O=c1c2c(nc(-c3cc(OC(F)(F)F)ccc3C3CC3)n1Cc1cnco1)sc1c(O)c(Cl)ccc12 [Example 143] | < 0.1 µM | < 0.1 µM |
| O=c1c2c(nc(-c3c(F)cc(F)cc3C3CC3)n1Cc1cnco1)sc1c(O)c(Cl)ccc12 [Example 144] | < 0.1 µM | < 0.1 µM |
| O=c1c2c(nc(-c3c(C4CC4)cc(F)c(F)c3F)n1Cc1cnco1)sc1c(O)c(Cl)ccc12 [Example 147] | < 0.1 µM | < 0.1 µM |
| O=c1ccc(Cn2c(-c3cc(F)c(F)cc3C3CC3)nc3sc4c(O)c(Cl)ccc4c3c2=O)c[nH]1 [Example 169] | < 0.1 µM | < 0.1 µM |
| O=c1c2c(nc(-c3ccc(C(F)F)cc3C3CC3)n1Cc1cc(C(F)(F)F)no1)sc1c(O)c(Cl)ccc12 [Example 171] | < 0.1 µM | < 0.1 µM |
| Cn1cc(Cn2c(-c3cc(F)c(F)cc3C3CC3)nc3sc4c(O)c(Cl)ccc4c3c2=O)ccc1=O [Example 174] | < 0.1 µM | < 0.1 µM |
| O=c1c2c(nc(-c3cc(F)c(C(F)F)cc3C3CC3)n1Cc1cc(C(F)(F)F)no1)sc1c(O)c(Cl)ccc12 [Example 175] | < 0.1 µM | < 0.1 µM |
| O=c1c2c(nc(-c3cc(F)c(C(F)F)cc3C3CC3)n1Cc1cnc(C(F)(F)F)nc1)sc1c(O)c(Cl)ccc12 [Example 176] | < 0.1 µM | < 0.1 µM |
| COc1ccc(-c2nc3sc4c(O)c(Cl)ccc4c3c(=O)n2Cc2cncs2)c(C2CC2)c1 [Example 190] | < 0.1 µM | < 0.1 µM |
| COc1ccc(-c2nc3sc4c(O)c(Cl)ccc4c3c(=O)n2Cc2cnc(Cl)s2)c(C2CC2)c1 [Example 191] | < 0.1 µM | < 0.1 µM |
| COc1ccc(-c2nc3sc4c(O)c(Cl)ccc4c3c(=O)n2Cc2ocnc2F)c(C2CC2)c1 [Example 220] | < 0.1 µM | < 0.1 µM |
